The record followed here is a melting point compilation (Tetko et al.; mined from patent text by program, amines drawn as free bases though some values may be those of a salt).

The compound `BrCCc1ccc([Si](c2ccccc2)(c2ccccc2)c2ccc(CCBr)cc2)cc1` returned a melting point of 220 °C.

`CCOC(=O)c1ccc(NCCc2ccc(OCc3ccccc3)cc2)cc1`: the melting point fell in the range of 94 to 97 °C.

`O=CC(CC(=O)O)NC(=O)C1CCCN2C(=O)CCC(NC(=O)c3ccccc3)C(=O)N12` (stereo not drawn) showed a melting point of 143 to 147 °C.

`CCS(=O)(=O)NNC(=O)NNS(=O)(=O)CC`: the melting point turned out to be 195 °C.

Consider `COc1cc(C=C(C=O)C(C=O)=Cc2ccc(OC(C)=O)c(OC)c2)ccc1OC(C)=O`, for which the melting point fell in the range of 149 to 151 °C.

`C=C(c1ccc(Cl)cc1)c1ccc(NC(=O)c2cc(Br)cc(Br)c2O)cc1` came in with a melting point of 181 to 183 °C.

On to `CC1(C)CCSc2c(CC#Cc3ccc(C=O)cc3)cccc21`, for which the melting point was in the range of 55 to 63 °C.

`OC(CCn1ccnc1)(c1ccccc1)c1ccc2sc3ccccc3c2c1` (stereo not drawn) gave a melting point of 88 to 91 °C.

`CN1C(=O)c2cscc2Nc2ccccc21` registered a melting point of 195 to 198 °C.

As for `CCCCc1sc(C(N)=O)c2c1-c1nn(C)cc1CC2`, the melting point was 227 to 228 °C.

Take `CC(=O)OCC1CCn2c(c(C3=C(c4cn(C)c5ccc(Br)cc45)C(=O)OC3=O)c3ccccc32)C1` (stereo not drawn): the melting point fell in the range of 215 to 220 °C.

Compound `CCOC(=O)c1cn(C(C)(C)C)c2nc(F)c(Cl)cc2c1=O` registered a melting point of 155 °C.

In the case of `N#CN=C(Nc1ccccc1Br)Nc1ccc(C#N)c(Br)c1O`, the melting point was determined as 142 °C.

Turning to `Cc1cc(=O)c2c([nH]1)CCOC2`, the melting point was > 285 °C.

The compound `O=C1c2ccccc2OCOc2ccccc21` came in with a melting point of 93 to 95 °C.

For the compound `OCC1CCCN(c2nc(-c3ccccc3)nc3ccccc23)C1` (stereo not drawn), the melting point is 116 to 118 °C.

With `CCCCNC(=O)NCCCCCCCCCCCCN`, the melting point worked out at 97 °C.

With `O=C(Nc1ccc(C(=O)Nc2ccc(Cl)cc2)c(O)c1)c1ccc(-c2nc3cc(Cl)c(Cl)cc3[nH]2)cc1`, the melting point is > 220 °C.

Compound `CC1(C)Cc2c(c(N3CCCCC3)nc3sc4c(NCCN5CCOCC5)ncnc4c23)CO1` displayed a melting point of 158 °C.

The compound `Cc1cn(-c2ccc(NC(=O)c3ccc(C)c(C#Cc4cnc(NC5CC5)nc4)c3)cc2C(F)(F)F)cn1` had a melting point of 131 to 133 °C.

`CC(C)(C)C(=O)C(C#N)C(=O)c1ccc(S(C)(=O)=O)cc1Cl` (stereo not drawn) gave a melting point of 144 °C.

The compound `O=C1CCC(N2Cc3c(OCc4cc(Cl)cc(Cl)c4)cccc3C2=O)C(=O)N1` (stereo not drawn) gave a melting point of 271 to 273 °C.

The compound `C=CCOc1cc(-n2nc(C)c(C)c2C)c(F)cc1Cl` registered a melting point of 97 to 99 °C.

Turning to `O=C(O)COc1ccc(SCc2cccc(OCc3ccc(Cl)c(C(F)(F)F)c3)c2)c2c1CCC2`, the melting point lay in the range of 121 to 122 °C.

Compound `Cc1ccc(S(=O)(=O)OCC2COC(C(F)(F)F)(C(F)(F)F)O2)cc1` (stereo not drawn) gave a melting point of 57 to 58.5 °C.

With `CNC(=O)C(C)Oc1cc(-c2nn(C)c(C(F)(F)F)c2Cl)c(F)cc1Cl` (stereo not drawn), the melting point fell in the range of 134 to 136 °C.

Compound `COc1ccc(C(=O)c2ccc(Sc3ccc(Cl)cc3)cc2)cc1OC` yielded a melting point of 118 to 120 °C.

The compound `Nc1ccc(S(F)(F)(F)(F)F)cc1[N+](=O)[O-]` came in with a melting point of 132 to 135 °C.

`CC(C)(SC(F)(F)F)C(O)C(Oc1ccc(Cl)cc1)n1cncn1` (stereo not drawn) displayed a melting point of 85 to 87 °C.

`COCC(=O)N[C@@H]1c2cc(C#N)ccc2OC(C)(C)[C@H]1O` (relative stereo) showed a melting point of 162 to 163 °C.

Consider `Nc1ccc(-c2ncc(C(F)(F)F)cc2Cl)cc1[N+](=O)[O-]`, for which the melting point was 126 to 127 °C.

Take `COC(=O)CCCCCOc1ccc(NC(=O)OCCOC(=O)Nc2ccc(OCCCCCC(=O)OC)cc2)cc1`: the melting point lay within 118 to 120 °C.

`CCCN(CCCCNc1ncc(Cc2ccncc2)c(=O)[nH]1)c1ccccn1` registered a melting point of 58 to 60 °C.

Regarding `CCOC(=O)c1[nH]cnc1Cc1ccccc1`, the melting point was 149 °C.

Take `COc1ccc(C)cc1NC(=O)Nc1ccc2c(c1)CCN(C(=O)Nc1ccc(OCCO)cc1Cl)C2`: the melting point is 110 to 113 °C.

In turn, `NC(=O)c1ccccc1N=C(NC(=O)c1ccccc1)NC(=O)c1ccccc1` displayed a melting point of 276 to 278 °C.

`COc1cc(CCCCC2OC(=O)NC2=O)ccc1OCc1coc(/C=C/c2ccccc2)n1` (stereo not drawn) returned a melting point of 171 to 172 °C.

For `C[C@](O)(COc1ccc(C#N)cc1)C(=O)Nc1ccc(C#N)c(Cl)c1`, the melting point was 103 to 105 °C.

In the case of `Cc1sc(-n2cccc2C=O)c(C#N)c1C`, the melting point is 154 °C.

Turning to `CCOC(=O)c1nc2ccc(N)cc2[nH]1`, the melting point fell in the range of 147 to 149 °C.

`Brc1cncc(N2C=CCC2)c1` registered a melting point of 98 to 99 °C.

With `CCc1ccc(-c2c(Cl)c(CN3C(=O)CCC3=O)nc3sc4c(c23)CCN(C(=O)OCc2ccccc2)C4)cc1`, the melting point fell in the range of 170 to 171 °C.

`CCCCn1c(C)c(Br)c(=O)c(C(=O)Nc2ccc(Br)cc2C)c1C`: the melting point is 190 to 192 °C.

`CC/C=C(\C)CNc1cccc(-c2ccnc3c(C(=O)c4cccs4)cnn23)c1` gave a melting point of 132 to 133 °C.

Regarding `CCCCCCC(Oc1ccc(C2=CCCCCCC2)cc1)C(=O)O` (stereo not drawn), the melting point lay in the range of 55 to 57 °C.

Regarding `CCOC(=O)C1=C(N)NC(N)=C(C(=O)OCC)C1c1cccc2ccccc12`, the melting point was 162 to 163 °C.

As to `CCOCCc1ccc(OCCNc2ncnc3oc(C)c(C)c23)c(C)c1`, the melting point fell in the range of 92 to 93 °C.

As to `CCCC1=C(C#N)C(c2ccccc2Cl)c2c(n[nH]c2-c2ccccc2)N1` (stereo not drawn), the melting point is 262 °C.

The compound `Fc1cccc(F)c1-c1ccc2cccnc2n1` showed a melting point of 100 to 103 °C.

In turn, `Nc1ccc(Oc2ncc(Cl)cn2)cc1` yielded a melting point of 125 °C.

The compound `Cc1cc(Br)c2c(c1)/C(=N\NC(N)=O)C(=O)N2CCN(C(C)C)C(C)C` yielded a melting point of 189 to 192 °C.

`O=C(NC1CC1)c1ccc2c(=O)nc(-c3ccccn3)sc2c1` yielded a melting point of 272 to 274 °C.

`Cc1ccc(-c2ccc3c(c2)C=C(C(=O)Nc2ccc(CNC4CCCCC4)cc2)CCO3)cc1` showed a melting point of 183 to 184 °C.

The compound `CC#CCOc1nsc(-c2cccc(F)c2)n1` displayed a melting point of 68.7 °C.

`Brc1ccc(Oc2ccc(-n3ccnc3)nn2)cc1`: the melting point came out at 168 °C.

`COc1nc(-c2ccc(=O)n(C(C)C)n2)c(-c2ccccc2)nc1N` yielded a melting point of 211 to 214 °C.

Compound `Cc1scc(CO)c1N` displayed a melting point of 70 to 71 °C.

With `CC(C)c1ccc(S(=O)(=O)NC(=O)C(Oc2cc(OCc3ccsc3)ccc2C#N)c2ccccc2)cc1` (racemic), the melting point fell in the range of 187 to 189 °C.

On to `COc1cc2c(cc1OC)CCN(CCCN(C)C1CCc3cc(OC)c(OC)cc3C1)CC2` (stereo not drawn), for which the melting point fell in the range of 92 to 93 °C.

In turn, `CC(=O)c1cccc(NC(=O)C(C)(C)C)c1` had a melting point of 130 to 133 °C.

As to `CC(C)C[C@H](NC(=O)c1ccc(Cl)cc1)C(=O)N[C@@H](C(C)C)[C@@H](O)c1c(-c2ccccc2)c1=O`, the melting point fell in the range of 116 to 120 °C.

The compound `CCCCOC(=O)COc1cc(F)ccc1C(=O)NCc1cccc([N+](=O)[O-])c1` came in with a melting point of 80 to 81 °C.

`Nc1cc(=O)n(Cc2ccc(Br)c(Br)c2)[nH]1` yielded a melting point of 182 °C.

Compound `COc1ccc(C(=O)Nc2ccc(C(C)(C)C#N)c(-c3cccc(Cl)c3)c2)cc1OC` gave a melting point of 144 to 146 °C.

For `N#Cc1nn(-c2c(Cl)cc(C(F)(F)F)cc2Cl)c(C=O)c1SC(F)(F)F`, the melting point worked out at 90 °C.

`O=C(O)/C=C/c1cnc(-c2ccc(O)c(C34CC5CC(CC(C5)C3)C4)c2)cn1` registered a melting point of 70 to 71 °C.

For `CCOc1ccc(NC=C(C#N)C(=O)Nc2cc(OC)c(Cl)cc2Cl)cc1I`, the melting point is > 245 °C.

`Cc1noc(CCCCCCCOc2ccc(C3=NCCO3)cc2)c1CCl`: the melting point is 103 to 104 °C.

`CN(c1cccc2cc(C(=O)O)[nH]c12)S(=O)(=O)c1ccccc1C(F)(F)F` had a melting point of 211 to 212 °C.

On to `O=C(O)c1cc2cccc(OCc3ccccc3)c2[nH]1`, for which the melting point lay in the range of 166 to 168 °C.

Turning to `CC(=O)N1CCc2cc(S(=O)(=O)n3c(CCC(=O)O)cc4cc(Cl)ccc43)ccc21`, the melting point fell in the range of 220 to 223 °C.

In turn, `C=Cc1ccc(S(N)(=O)=O)cc1` had a melting point of 130 to 132 °C.

In turn, `COC(=O)c1ccc2[nH]c(-c3ccc(OC)c4nc(C)ccc34)nc2c1` came in with a melting point of 165 to 167 °C.

For the compound `CCCNC(=O)c1ccc(CCN2CC=C(c3c[nH]c(-c4ccc(F)cc4)c3-c3ccncc3)CC2)cc1`, the melting point fell in the range of 227 to 230 °C.

In turn, `CC(N)C(=O)N1C(C(=O)O)CC2CCCCC21` (stereo not drawn) registered a melting point of 163 to 165 °C.

Consider `Brc1c(OCc2ccc3ccccc3n2)ccc2ccccc12`, for which the melting point is 130 to 132 °C.

`CNC(=O)C(=O)CCCCCCS(=O)(=O)c1ccc(-c2ccccc2)cc1` registered a melting point of 134 to 135 °C.

In turn, `CCCCCCCCCCCCCCCCCC[PH](=O)C(OCC)OCC` (stereo not drawn) showed a melting point of 54 to 58 °C.

On to `COc1ccc(C=CC2=NN(C(C)=O)C(C)Cc3cc(OC)c(OC)cc32)c(OC)c1` (stereo not drawn), for which the melting point was 85 to 87 °C.

`CCOCc1nc2c(N)nc3cc(-c4cccc(C(N)=O)c4)cnc3c2n1CC(C)(C)O`: the melting point was > 250 °C.

Compound `COc1cc(Cl)c(N)cc1C(=O)NCC1CCCO1` (stereo not drawn) came in with a melting point of 109 to 110 °C.

In turn, `Oc1cccc(-n2cnc(-c3ccccc3)c2)c1` displayed a melting point of 195 to 197 °C.

In turn, `CN1C(=O)C2C3C=CC(CCC3)C2(c2ccc(Cl)c(Cl)c2)C1=O` (stereo not drawn) registered a melting point of 110 to 115 °C.

Consider `C=C(CCC(C)C1CCC2C3=C(C(=O)CC21C)C1(C)CCC(=O)C(C)C1CC3O)C(C)C(=O)OC` (stereo not drawn), for which the melting point lay within 100 to 101 °C.

Regarding `C#CC[C@H]1CC[C@H](CO)CC1`, the melting point lay within 106 to 108 °C.

Regarding `O=Cc1cn([C@H]2CCc3c(F)cc(F)cc3C2)c(=S)[nH]1`, the melting point is > 285 °C.

On to `O=C1C=C(NC(=O)C(=O)c2cn(Cc3ccc(Cl)cc3)c3ccc([N+](=O)[O-])cc23)CO1`, for which the melting point is 248 to 250 °C.

For `FC(F)(F)c1cc(Br)c(C(F)(F)F)cc1Br`, the melting point is 64 to 65 °C.

One may read the melting point as the temperature, or range, at which the solid turns liquid.
